These results are taken from ChEMBL document CHEMBL1137191, “Evaluation of pyrrolidin-2-imines and 1,3-thiazolidin-2-imines as inhibitors of nitric oxide synthase” (Bioorg Med Chem Lett, 2004).

Molecules are shown by their SMILES.

One experiment concerns the target Nitric oxide synthase 1 (Homo sapiens, UniProt P29475). Put plainly: Inhibitory activity against Neuronal nitric oxide synthase.
Experiment [1] addresses Nitric oxide synthase, inducible (Homo sapiens, UniProt P35228). Put plainly: Inhibitory activity against Inducible nitric oxide synthase.
For another experiment, the target named is T1, Nitric oxide synthase 3 (Homo sapiens, UniProt P29474).
T1 sequence (P29474 whole entry): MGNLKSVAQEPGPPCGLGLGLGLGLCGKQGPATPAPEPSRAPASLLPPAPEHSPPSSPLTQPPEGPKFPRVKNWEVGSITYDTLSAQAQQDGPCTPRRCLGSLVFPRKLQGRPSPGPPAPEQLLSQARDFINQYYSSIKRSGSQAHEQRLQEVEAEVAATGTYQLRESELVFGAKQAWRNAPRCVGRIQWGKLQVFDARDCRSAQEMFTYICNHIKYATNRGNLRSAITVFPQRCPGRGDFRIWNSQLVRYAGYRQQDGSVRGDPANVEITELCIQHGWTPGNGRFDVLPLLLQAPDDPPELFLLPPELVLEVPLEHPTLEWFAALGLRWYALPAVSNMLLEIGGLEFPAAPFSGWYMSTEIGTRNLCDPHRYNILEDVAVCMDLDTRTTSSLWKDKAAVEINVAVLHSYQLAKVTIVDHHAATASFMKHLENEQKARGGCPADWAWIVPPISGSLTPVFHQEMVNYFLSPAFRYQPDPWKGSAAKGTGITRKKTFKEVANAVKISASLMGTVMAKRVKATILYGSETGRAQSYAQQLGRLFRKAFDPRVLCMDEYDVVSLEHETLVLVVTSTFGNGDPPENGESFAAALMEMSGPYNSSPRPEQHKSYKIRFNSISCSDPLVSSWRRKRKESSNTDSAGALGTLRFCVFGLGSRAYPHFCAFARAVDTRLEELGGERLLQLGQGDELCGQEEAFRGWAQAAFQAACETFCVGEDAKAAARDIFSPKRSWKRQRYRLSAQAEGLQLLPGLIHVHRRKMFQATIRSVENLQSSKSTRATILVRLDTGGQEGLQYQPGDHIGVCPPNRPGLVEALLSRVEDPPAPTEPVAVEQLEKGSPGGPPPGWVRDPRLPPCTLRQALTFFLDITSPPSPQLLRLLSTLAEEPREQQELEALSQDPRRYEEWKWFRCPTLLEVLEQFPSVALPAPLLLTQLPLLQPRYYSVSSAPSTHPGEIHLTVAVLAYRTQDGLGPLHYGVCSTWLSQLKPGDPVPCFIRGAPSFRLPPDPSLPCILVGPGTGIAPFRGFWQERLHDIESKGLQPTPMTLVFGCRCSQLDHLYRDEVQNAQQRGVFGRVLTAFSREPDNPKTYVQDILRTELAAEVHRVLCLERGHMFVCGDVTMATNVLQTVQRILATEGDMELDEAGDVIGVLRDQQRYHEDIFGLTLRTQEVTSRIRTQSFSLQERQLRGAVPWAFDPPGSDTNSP
Briefly: Inhibitory activity against Endothelial nitric oxide synthase.

Experiment [2] addresses T2, Nitric oxide synthase 3 (Homo sapiens) (UniProt P29474).
T2 sequence (whole entry): T1 sequence (P29474 whole entry)
Put plainly: Ratio between Endothelial nitric oxide synthase and Inducible nitric oxide synthase.

One may read the IC50 as the concentration at which inhibition is half-maximal. Low readings indicate greater potency, high ones weaker potency.

Nitric oxide synthase, inducible, sequence (P35228 whole entry): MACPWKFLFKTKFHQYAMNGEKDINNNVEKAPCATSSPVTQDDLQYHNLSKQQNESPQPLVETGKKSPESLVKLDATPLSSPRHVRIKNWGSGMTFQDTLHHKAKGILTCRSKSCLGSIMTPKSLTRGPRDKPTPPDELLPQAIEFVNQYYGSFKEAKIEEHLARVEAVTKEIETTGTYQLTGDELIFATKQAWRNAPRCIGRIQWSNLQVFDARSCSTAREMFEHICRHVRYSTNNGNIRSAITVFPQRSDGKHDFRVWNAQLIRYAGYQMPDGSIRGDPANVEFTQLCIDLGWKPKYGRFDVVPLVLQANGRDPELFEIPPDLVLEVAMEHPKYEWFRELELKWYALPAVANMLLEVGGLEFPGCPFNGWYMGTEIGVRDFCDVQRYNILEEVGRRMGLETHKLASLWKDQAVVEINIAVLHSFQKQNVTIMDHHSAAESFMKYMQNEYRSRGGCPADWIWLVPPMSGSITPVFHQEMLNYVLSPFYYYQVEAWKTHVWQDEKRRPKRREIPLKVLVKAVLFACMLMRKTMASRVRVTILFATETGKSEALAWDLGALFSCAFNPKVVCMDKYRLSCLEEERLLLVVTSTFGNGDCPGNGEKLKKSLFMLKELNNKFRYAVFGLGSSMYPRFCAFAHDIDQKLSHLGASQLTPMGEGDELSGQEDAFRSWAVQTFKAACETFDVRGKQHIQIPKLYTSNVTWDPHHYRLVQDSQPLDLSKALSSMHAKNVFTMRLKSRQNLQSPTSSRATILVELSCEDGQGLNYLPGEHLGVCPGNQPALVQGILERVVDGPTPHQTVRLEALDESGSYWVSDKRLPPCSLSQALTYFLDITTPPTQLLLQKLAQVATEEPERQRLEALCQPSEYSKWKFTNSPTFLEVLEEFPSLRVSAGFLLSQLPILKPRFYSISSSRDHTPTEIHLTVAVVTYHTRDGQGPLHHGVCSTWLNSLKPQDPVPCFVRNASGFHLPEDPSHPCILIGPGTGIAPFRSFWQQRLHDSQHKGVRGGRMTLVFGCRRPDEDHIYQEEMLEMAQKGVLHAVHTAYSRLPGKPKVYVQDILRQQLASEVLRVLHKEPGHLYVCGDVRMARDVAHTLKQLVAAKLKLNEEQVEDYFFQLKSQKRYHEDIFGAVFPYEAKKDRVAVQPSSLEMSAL
Nitric oxide synthase 1, sequence (P29475 whole entry): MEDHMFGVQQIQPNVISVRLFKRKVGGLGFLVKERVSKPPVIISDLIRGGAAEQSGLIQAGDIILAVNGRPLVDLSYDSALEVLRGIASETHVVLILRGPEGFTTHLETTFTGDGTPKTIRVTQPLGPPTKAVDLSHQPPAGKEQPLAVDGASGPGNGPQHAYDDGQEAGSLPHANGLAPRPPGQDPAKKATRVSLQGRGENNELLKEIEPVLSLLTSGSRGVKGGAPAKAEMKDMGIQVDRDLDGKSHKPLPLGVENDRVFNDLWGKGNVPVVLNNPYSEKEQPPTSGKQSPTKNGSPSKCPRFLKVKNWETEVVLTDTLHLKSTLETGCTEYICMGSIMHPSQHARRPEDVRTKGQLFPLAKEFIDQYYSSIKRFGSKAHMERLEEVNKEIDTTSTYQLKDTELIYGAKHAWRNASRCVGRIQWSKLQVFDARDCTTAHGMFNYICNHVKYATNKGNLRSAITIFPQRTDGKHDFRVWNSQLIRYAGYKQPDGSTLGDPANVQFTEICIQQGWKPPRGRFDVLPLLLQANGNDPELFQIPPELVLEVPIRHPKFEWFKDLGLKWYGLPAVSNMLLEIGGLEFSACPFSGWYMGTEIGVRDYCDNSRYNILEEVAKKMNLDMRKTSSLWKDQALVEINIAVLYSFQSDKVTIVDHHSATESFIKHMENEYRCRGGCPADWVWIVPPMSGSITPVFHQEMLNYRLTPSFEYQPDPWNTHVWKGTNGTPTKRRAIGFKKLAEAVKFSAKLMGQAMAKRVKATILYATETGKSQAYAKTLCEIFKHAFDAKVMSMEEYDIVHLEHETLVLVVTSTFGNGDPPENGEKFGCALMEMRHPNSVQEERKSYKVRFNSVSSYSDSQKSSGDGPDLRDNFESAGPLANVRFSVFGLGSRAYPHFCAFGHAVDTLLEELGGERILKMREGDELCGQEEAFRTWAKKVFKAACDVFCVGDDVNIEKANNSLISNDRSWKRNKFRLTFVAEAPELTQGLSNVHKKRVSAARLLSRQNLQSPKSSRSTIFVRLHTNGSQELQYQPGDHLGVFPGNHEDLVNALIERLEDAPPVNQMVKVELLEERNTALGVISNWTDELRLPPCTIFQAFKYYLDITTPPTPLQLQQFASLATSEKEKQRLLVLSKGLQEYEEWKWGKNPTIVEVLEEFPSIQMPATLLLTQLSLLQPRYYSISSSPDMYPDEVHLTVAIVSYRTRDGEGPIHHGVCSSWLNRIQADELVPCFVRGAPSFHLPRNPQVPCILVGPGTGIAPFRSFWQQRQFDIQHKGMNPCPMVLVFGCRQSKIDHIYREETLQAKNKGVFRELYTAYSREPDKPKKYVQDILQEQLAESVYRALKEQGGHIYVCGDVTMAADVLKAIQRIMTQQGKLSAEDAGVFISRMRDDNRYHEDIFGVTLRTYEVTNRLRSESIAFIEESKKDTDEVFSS

`N=C1SCC2CCCN12` (stereo unspecified): the IC50 is 14 µM against Nitric oxide synthase 1, more than 50000 nM in experiment [1] and more than 50 µM against Nitric oxide synthase 3.

For the molecule `N=C1SCC2CCCCN12` (stereo unspecified), the IC50 at Nitric oxide synthase 1 was more than 50 µM; in experiment [1], more than 50000 nM; against Nitric oxide synthase 3, more than 50 µM.

`CCCC1CC(N)=NC1C` (stereo unspecified): the IC50 at Nitric oxide synthase 1 stood at 27 µM; in experiment [1], 13100 nM; against Nitric oxide synthase 3, 104 µM. Besides, the Ratio in experiment [2] was 8.

For the molecule `CCCCC1CSC(N)=N1` (stereo unspecified), the IC50 on Nitric oxide synthase 1 is 13.2 µM; in experiment [1], 5200 nM; against Nitric oxide synthase 3 it was more than 50 µM.

For `CC(C)C1CN=C(N)C1` (stereo unspecified), the IC50 against Nitric oxide synthase 1 came out at 10.6 µM; in experiment [1] it was 3500 nM; on Nitric oxide synthase 3, 87.8 µM. For the same molecule, in experiment [2], the Ratio came out at 25.

Take `CC1CCC(N)=N1` (stereo unspecified): the IC50 stood at 3.1 µM against Nitric oxide synthase 1, 1300 nM in experiment [1] and 1.9 µM against Nitric oxide synthase 3. Besides, the Ratio in experiment [2] was found to be 1.4.

On to `CCC1CC(N)=NC1C` (stereo unspecified), for which the IC50 stood at 0.14 µM on Nitric oxide synthase 1, 160 nM in experiment [1] and 6.3 µM on Nitric oxide synthase 3. Besides, the Ratio in experiment [2] stood at 38.

In the case of `N=C1CCC2CCCN12` (stereo unspecified), the IC50 is 9.6 µM at Nitric oxide synthase 1, more than 50000 nM in experiment [1] and 33 µM at Nitric oxide synthase 3.

Consider `CC(=N)NCCCC[C@H](N)C(=O)O` [L-NIL], for which the IC50 against Nitric oxide synthase 1 amounted to 17.5 µM. Besides, in experiment [2], the Ratio came out at 3.7.

Turning to `CC1CCN=C1N` (stereo unspecified), the IC50 was found to be 0.9 µM against Nitric oxide synthase 1, 1500 nM in experiment [1] and 1.8 µM against Nitric oxide synthase 3. Besides, the Ratio in experiment [2] is 1.2.

On to `CCCC1N=C(N)CC1C` (stereo unspecified), for which the IC50 stood at 4.8 µM at Nitric oxide synthase 1, 2000 nM in experiment [1] and 49 µM at Nitric oxide synthase 3. For the same molecule, the Ratio in experiment [2] is 24.

As to `CCC1CC(C)C(N)=N1` (stereo unspecified), the IC50 is 2.4 µM against Nitric oxide synthase 1, 23000 nM in experiment [1] and 5.5 µM against Nitric oxide synthase 3. In addition, the Ratio in experiment [2] was 0.24.

As to `CC1CN=C(N)S1` (stereo unspecified), the figures for the IC50 (on Nitric oxide synthase 1; in experiment [1]; against Nitric oxide synthase 3) were more than 50 µM, more than 50000 nM and more than 50 µM, respectively.

As for `N=C1CCC2CCCCN12` (stereo unspecified), the IC50 against Nitric oxide synthase 1 was more than 50 µM; in experiment [1] it was more than 50000 nM; against Nitric oxide synthase 3 it was more than 50 µM.

With `CCC1CN=C(N)C1` (stereo unspecified), the IC50 against Nitric oxide synthase 1 amounted to 2.6 µM; in experiment [1], 500 nM; against Nitric oxide synthase 3, 14.5 µM. Moreover, in experiment [2], the Ratio came to 27.

As to `CCCC1CC(N)=NC1CC` (stereo unspecified), the IC50 at Nitric oxide synthase 1 was found to be 17.3 µM; in experiment [1], 10200 nM; on Nitric oxide synthase 3 it was 227 µM. Also, the Ratio in experiment [2] came to 22.

`CCCC1CN=C(N)C1` (stereo unspecified): the IC50 was 53 µM at Nitric oxide synthase 1, 38700 nM in experiment [1] and 53 µM against Nitric oxide synthase 3. Besides, the Ratio in experiment [2] stood at 1.4.

With `NC1=NCC(c2ccccc2)C1` (stereo unspecified), the IC50 at Nitric oxide synthase 1 was more than 50 µM; in experiment [1], more than 50000 nM; at Nitric oxide synthase 3, more than 50 µM.

For `CCC1N=C(N)CC1C` (stereo unspecified), the values for the IC50 (at Nitric oxide synthase 1; in experiment [1]; against Nitric oxide synthase 3) were 0.08 µM, 20 nM and 0.52 µM, respectively. Moreover, in experiment [2], the Ratio was found to be 26.

As for `CCC1CN=C(N)C1C` (stereo unspecified), the results for the IC50 (against Nitric oxide synthase 1; in experiment [1]; at Nitric oxide synthase 3) were 0.61 µM, 930 nM and 60.6 µM, respectively. In addition, the Ratio in experiment [2] was determined as 65.

As for `CC1CN=C(N)C1C` (stereo unspecified), the IC50 against Nitric oxide synthase 1 worked out at 0.61 µM; in experiment [1], 1200 nM; against Nitric oxide synthase 3, 8.7 µM. The Ratio in experiment [2] was determined as 7.2.

In the case of `NC1=NC2CCCC2C1` (stereo unspecified), the values for the IC50 (against Nitric oxide synthase 1; in experiment [1]; against Nitric oxide synthase 3) were 9.9 µM, more than 50000 nM and more than 50 µM, respectively.

As for `CC1CN=C(N)C1` (stereo unspecified), the results for the IC50 (at Nitric oxide synthase 1; in experiment [1]; against Nitric oxide synthase 3) were 0.8 µM, 200 nM and 2.6 µM, respectively. In experiment [2], the Ratio was 13.

In the case of `NC1=NC(c2ccccc2)CS1` (stereo unspecified), the IC50 against Nitric oxide synthase 1 was more than 50 µM; in experiment [1], more than 50000 nM; at Nitric oxide synthase 3, more than 50 µM.

As for `NC1=NCCC1`, the IC50 against Nitric oxide synthase 1 turned out to be 9.6 µM; in experiment [1] it was 4100 nM; at Nitric oxide synthase 3, 4.6 µM. Further, the Ratio in experiment [2] is 1.1.

Take `CC1CC(N)=NC1C` (stereo unspecified): the IC50 on Nitric oxide synthase 1 came to 0.13 µM; in experiment [1], 300 nM; against Nitric oxide synthase 3, 0.6 µM.

With `NC1=NCCS1`, the half-maximal inhibitory concentration (IC50) on Nitric oxide synthase 1 was found to be 1.8 µM; in experiment [1], 900 nM; on Nitric oxide synthase 3 it was 1.1 µM. Besides, the Ratio in experiment [2] came to 1.2.
